Experimental data from patent publication US20100099561A1, “HETEROBICYCLIC ALKYLTHIO-BRIDGED ISOXAZOLINES” (E.I. DU PONT DE NEMOURS AND COMPANY, priority 2008, published 2010).

How the values were obtained:
Format in all cases: in vivo
[1] = tested on: barnyardgrass (Echinochloa crus-galli); assay: Test A preemergence, barnyardgrass; conditions: 0 to 100 scale (0 no effect, 100 complete control)
Procedure, shortened: (§1)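 In a greenhouse, loam–sand potted species were treated with surfactant-formulated compound, preemergence via directed soil spray and postemergence at 2–10 cm height, one- to two-leaf stage. Response assessed visually at about ten days; 100 means complete control.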

[2] = tested on: large crabgrass (Digitaria sanguinalis); assay: Test A preemergence, large crabgrass; conditions: 0 to 100 scale (0 no effect, 100 complete control)
Procedure, shortened: as §1

[3] = tested on: giant foxtail (Setaria faberi); assay: Test A preemergence, giant foxtail; conditions: 0 to 100 scale (0 no effect, 100 complete control)
Procedure, shortened: as §1

[4] = tested on: morningglory (Ipomoea spp.); assay: Test A preemergence, morningglory; conditions: 0 to 100 scale (0 no effect, 100 complete control)
Procedure, shortened: as §1

[5] = tested on: pigweed (Amaranthus retroflexus); assay: Test A preemergence, pigweed; conditions: 0 to 100 scale (0 no effect, 100 complete control)
Procedure, shortened: as §1

[6] = tested on: velvetleaf (Abutilon theophrasti); assay: Test A preemergence, velvetleaf; conditions: 0 to 100 scale (0 no effect, 100 complete control)
Procedure, shortened: as §1

[7] = tested on: wheat (Triticum aestivum); assay: Test A preemergence, wheat; conditions: 0 to 100 scale (0 no effect, 100 complete control)
Procedure, shortened: as §1

corn (Zea mays) [8] = assay: Test A preemergence, corn; conditions: 125 g ai/ha, 0 to 100 scale (0 no effect, 100 complete control)
Procedure, shortened: as §1

[9] = tested on: barnyardgrass (Echinochloa crus-galli); assay: Test A postemergence, barnyardgrass; conditions: 0 to 100 scale (0 no effect, 100 complete control)
Procedure, shortened: as §1

[10] = tested on: large crabgrass (Digitaria sanguinalis); assay: Test A postemergence, large crabgrass; conditions: 0 to 100 scale (0 no effect, 100 complete control)
Procedure, shortened: as §1

[11] = tested on: giant foxtail (Setaria faberi); assay: Test A postemergence, giant foxtail; conditions: 0 to 100 scale (0 no effect, 100 complete control)
Procedure, shortened: as §1

[12] = tested on: morningglory (Ipomoea spp.); assay: Test A postemergence, morningglory; conditions: 0 to 100 scale (0 no effect, 100 complete control)
Procedure, shortened: as §1

[13] = tested on: pigweed (Amaranthus retroflexus); assay: Test A postemergence, pigweed; conditions: 0 to 100 scale (0 no effect, 100 complete control)
Procedure, shortened: as §1

[14] = tested on: velvetleaf (Abutilon theophrasti); assay: Test A postemergence, velvetleaf; conditions: 0 to 100 scale (0 no effect, 100 complete control)
Procedure, shortened: as §1

[15] = tested on: wheat (Triticum aestivum); assay: Test A postemergence, wheat; conditions: 0 to 100 scale (0 no effect, 100 complete control)
Procedure, shortened: as §1

corn (Zea mays) [16] = assay: Test A postemergence, corn; conditions: 0 to 100 scale (0 no effect, 100 complete control)
Procedure, shortened: as §1

[17] = tested on: Italian ryegrass (Lolium multiflorum); assay: Test B preemergence, Italian ryegrass; conditions: Table B, preemergence; visual rating on a 0 to 100 scale (0 no effect, 100 complete control), 13 to 15 days after treatment; application rate of this section not shown
Excerpt: (§2) Seeds of plant species selected from blackgrass (Alopecurus myosuroides), downy bromegrass (Bromus tectorum), green foxtail (Setaria viridis), Italian ryegrass (Lolium multiflorum), wheat (Triticum aestivum), wild oat (Avena fatua), catchweed bedstraw (Galium aparine), bermudagrass (Cynodon dactylon), Surinam grass (Brachiaria decumbens), cocklebur (Xanthium strumarium), corn (Zea mays), large crabgrass (Digitaria sanguinalis), woolly cupgrass (Eriochloa villosa), giant foxtail (Setaria faberii), goosegrass (Eleusine indica), johnsongrass (Sorghum halepense), kochia (Kochia scoparia), lambsquarters (Chenopodium album), morningglory (Ipomoea coccinea), nightshade (eastern black nightshade, Solanum ptycanthum), yellow nutsedge (Cyperus esculentus), pigweed (Amaranthus retroflexus), ragweed (common ragweed, Ambrosia elatior), soybean (Glycine max), sunflower (common oilseed sunflower, Helianthus annuus), Russian thistle (Salsola kali), and velvetleaf (Abutilon theophrasti) were planted into a blend of loam soil and sand and treated preemergence with test compounds formulated in a non-phytotoxic solvent mixture which included a surfactant. Treated plants and controls were maintained in a greenhouse for 13 to 15 days, after which time all species were compared to controls and visually evaluated. Plant response ratings, summarized in Table B, are based on a scale of 0 to 100 where 0 is no effect and 100 is complete control. A dash (-) response means no test result.

[18] = tested on: wheat (Triticum aestivum); assay: Test B preemergence, wheat; conditions: Table B, preemergence; visual rating on a 0 to 100 scale (0 no effect, 100 complete control), 13 to 15 days after treatment; application rate of this section not shown
Excerpt: as §2

[19] = tested on: Surinam grass (Brachiaria decumbens); assay: Test B preemergence, Surinam grass; conditions: Table B, preemergence; visual rating on a 0 to 100 scale (0 no effect, 100 complete control), 13 to 15 days after treatment; application rate of this section not shown
Excerpt: as §2

soybean (Glycine max) = assay: Test B preemergence, soybean; conditions: Table B, preemergence; visual rating on a 0 to 100 scale (0 no effect, 100 complete control), 13 to 15 days after treatment; application rate of this section not shown
Excerpt: as §2

[20] = tested on: sunflower (common oilseed sunflower, Helianthus annuus); assay: Test B preemergence, sunflower; conditions: Table B, preemergence; visual rating on a 0 to 100 scale (0 no effect, 100 complete control), 13 to 15 days after treatment; application rate of this section not shown
Excerpt: as §2

[21] = tested on: velvetleaf (Abutilon theophrasti); assay: Test B preemergence, velvetleaf; conditions: Table B, preemergence; visual rating on a 0 to 100 scale (0 no effect, 100 complete control), 13 to 15 days after treatment; application rate of this section not shown
Excerpt: as §2

rice (Oryza sativa) = assay: Test B flooded paddy test, rice; conditions: Flood, scale 0 to 100
Procedure, shortened: (§3)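 Compounds were added directly to paddy water over 2-leaf-stage plants in pots flooded 3 cm above soil, water depth maintained. Visual injury scored against controls after 13 to 15 days in greenhouse, 0 (none) to 100 (complete control); dash indicates no result.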

[22] = tested on: umbrella sedge (Cyperus difformis); assay: Test B flooded paddy test, umbrella sedge; conditions: Flood, scale 0 to 100
Procedure, shortened: as §3

[23] = tested on: ducksalad (Heteranthera limosa); assay: Test B flooded paddy test, ducksalad; conditions: Flood, scale 0 to 100
Procedure, shortened: as §3

[24] = tested on: barnyardgrass (Echinochloa crus-galli); assay: Test B flooded paddy test, barnyardgrass; conditions: Flood
Procedure, shortened: as §3

Cn1c(=O)c(CS(=O)(=O)C2=NOC(C)(C)C2)c(C(F)(F)F)c2ccccc21 [Compound 1, 3-[[(4,5-dihydro-5,5-dimethyl-3-isoxazolyl)sulfonyl]methyl]-1-methyl-4-(trifluoromethyl)-2(1H)-quinolinone]
90: Plant response rating, Foxtail, Giant ([3]; 500 g ai/ha)
0: Plant response rating, Barnyardgrass ([1]; 125 g ai/ha) | Plant response rating, Crabgrass, Large ([2]; 125 g ai/ha) | Plant response rating, Morningglory ([4]; 125 g ai/ha) | Plant response rating, Morningglory ([4]; 500 g ai/ha) | Plant response rating, Pigweed ([5]; 125 g ai/ha) | Plant response rating, Velvetleaf ([6]; 125 g ai/ha) | Plant response rating, Velvetleaf ([6]; 500 g ai/ha) | Plant response rating, Wheat ([7]; 125 g ai/ha) | Plant response rating, Wheat ([7]; 500 g ai/ha) | Plant response rating, Corn (corn (Zea mays) [8]) | Plant response rating, Barnyardgrass ([9]; 125 g ai/ha) | Plant response rating, Morningglory ([12]; 125 g ai/ha) | Plant response rating, Morningglory ([12]; 500 g ai/ha) | Plant response rating, Pigweed ([13]; 125 g ai/ha) | Plant response rating, Velvetleaf ([14]; 125 g ai/ha) | Plant response rating, Wheat ([15]; 125 g ai/ha) | Plant response rating, Wheat ([15]; 500 g ai/ha) | Plant response rating, Corn (corn (Zea mays) [16]; 125 g ai/ha) | Plant response rating, Corn (corn (Zea mays) [16]; 500 g ai/ha) | Plant response rating, Ryegrass, Italian [17] | Plant response rating, Wheat [18] | Plant response rating, Surinam Grass [19] | Plant response rating, Soybean (soybean (Glycine max)) | Plant response rating, Sunflower [20] | Plant response rating, Velvetleaf [21] | Plant response rating, Rice (rice (Oryza sativa); 31 g ai/ha) | Plant response rating, Rice (rice (Oryza sativa); 62 g ai/ha) | Plant response rating, Rice (rice (Oryza sativa); 125 g ai/ha) | Plant response rating, Sedge, Umbrella ([22]; 31 g ai/ha) | Plant response rating, Sedge, Umbrella ([22]; 62 g ai/ha) | Plant response rating, Sedge, Umbrella ([22]; 125 g ai/ha) | Plant response rating, Sedge, Umbrella ([22]; 250 g ai/ha) | Plant response rating, Ducksalad ([23]; 31 g ai/ha) | Plant response rating, Ducksalad ([23]; 62 g ai/ha) | Plant response rating, Ducksalad ([23]; 125 g ai/ha) | Plant response rating, Ducksalad ([23]; 250 g ai/ha)
80: Plant response rating, Barnyardgrass ([1]; 500 g ai/ha) | Plant response rating, Barnyardgrass ([9]; 500 g ai/ha) | Plant response rating, Foxtail, Giant ([11]; 500 g ai/ha)
70: Plant response rating, Crabgrass, Large ([10]; 500 g ai/ha)
30: Plant response rating, Foxtail, Giant ([3]; 125 g ai/ha)
50: Plant response rating, Crabgrass, Large ([2]; 500 g ai/ha) | Plant response rating, Pigweed ([13]; 500 g ai/ha)
10: Plant response rating, Crabgrass, Large ([10]; 125 g ai/ha)
60: Plant response rating, Pigweed ([5]; 500 g ai/ha)
20: Plant response rating, Foxtail, Giant ([11]; 125 g ai/ha) | Plant response rating, Velvetleaf ([14]; 500 g ai/ha) | Plant response rating, Rice (rice (Oryza sativa); 250 g ai/ha) | Plant response rating, Barnyardgrass ([24]; 31 g ai/ha, scale 0 to 100) | Plant response rating, Barnyardgrass ([24]; 62 g ai/ha, scale 0 to 100) | Plant response rating, Barnyardgrass ([24]; 125 g ai/ha, scale 0 to 100) | Plant response rating, Barnyardgrass ([24]; 250 g ai/ha, scale 0 to 100 (0 no effect, 100 complete control))
